These results are taken from ChEMBL document CHEMBL1147588, “Synthesis and in vitro cytotoxicity of 5-substituted 2-cyanoimino-4-imidazodinone and 2-cyanoimino-4-pyrimidinone derivatives” (Bioorg Med Chem Lett, 2004).

One test deals with DLD-1. The experiment in a line: Cytotoxic activity against DLD1 colon cancer cell line. Type of test: functional, cell-based. Conditions: Homo sapiens; call rule not given here.
Test [1] has as its system HA22T cell line. Briefly: Cytotoxic activity against HA22T liver cancer cell line. The test is classed as functional, cell-based. The settings on record: Homo sapiens.
A further test relates to HONE1 cell line. Briefly: Cytotoxic activity against HONE1 nasopharyngeal carcinoma cell line. The test is classed as functional, cell-based. Conditions: Homo sapiens.
The next test has as its system HepG2. The experiment in a line: Cytotoxic activity against HepG2 liver cancer cell line. Type of test: functional, cell-based. The settings on record: Homo sapiens.
Test [2] relates to MCF7. Briefly: Cytotoxic activity against MCF breast cancer cell line. Type of test: functional, cell-based. The settings on record: Homo sapiens.
A further test deals with NUGC. The experiment in a line: Cytotoxic activity against NUGC gastric cancer cell line. The test is classed as functional, cell-based. Conditions: Homo sapiens, Stomach.
A further test has as its system WI-38. The experiment in a line: Cytotoxic activity against WI38 normal fibroblast cell line; na=Not active. The test is classed as functional, cell-based, Homo sapiens.
Test [3] has as its system HA22T cell line. The experiment in a line: Cytotoxic activity against HA22T liver cancer cell line; na=Not active. The test is classed as functional, cell-based, Homo sapiens.
For test [4], the system named is MCF7. The experiment in a line: Cytotoxic activity against MCF breast cancer cell line; na=Not active. Type of test: functional, cell-based, Homo sapiens.

The IC50 is the concentration that gives 50% inhibition. Low values mean inhibition by little substance, high ones a need for much substance. For `N#C/N=C1\N(CCCCCCCOc2ccc(Cl)cc2)C(=O)C(c2ccccc2)N1c1ccncc1` (configuration not stated), the half-inhibitory concentration (IC50) came out at 290 nM in the test with DLD-1; 831 nM in the test with HA22T cell line [1]; 398 nM in the test with HONE1 cell line; 380 nM in the test on HepG2; 1170 nM with MCF7 [2]; 3350 nM with NUGC. Further, the half-inhibitory concentration (IC50) result in the test on WI-38 is given as “Not Active”.

In the case of `N#C/N=C1\N(CCCCCCOc2ccc(Cl)cc2)C(=O)C(c2ccccc2)N1c1ccncc1` (configuration not stated), the half-inhibitory concentration (IC50) worked out at 37 nM with DLD-1; 526 nM in the test on HA22T cell line [1]; 337 nM with HONE1 cell line; 44 nM in the test with HepG2; 1130 nM in the test on MCF7 [2]; 3340 nM with NUGC. Moreover, the IC50 entry in the test with WI-38 was “Not Active”.

Consider `CC1C(=O)N(CCCCCCOc2ccc(Cl)cc2)/C(=N\C#N)N1c1ccncc1` (configuration not stated), for which the IC50 in the test on DLD-1 is 333 nM; in the test with HA22T cell line [1], 382 nM; with HONE1 cell line, 303 nM; with HepG2, 282 nM; in the test on MCF7 [2] it was 270 nM; in the test on NUGC, 214 nM. In addition, in the test with WI-38, the concentration for half-maximal inhibition (IC50) entry was “Not Active”.

`CCC1C(=O)N(CCCCCCOc2ccc(Cl)cc2)/C(=N\C#N)N1c1ccncc1` (configuration not stated): the concentration for half-maximal inhibition (IC50) in the test with DLD-1 is 3560 nM; in the test with HA22T cell line [1], 5130 nM; with HONE1 cell line it was 3870 nM; in the test on HepG2 it was 4350 nM; in the test on MCF7 [2] it was 6910 nM; in the test with NUGC it was 406 nM. Besides, in the test on WI-38, the IC50 entry is listed as “Not Active”.

On to `CC1C(=O)N(CCCCCOc2ccc(Cl)cc2)/C(=N\C#N)N1c1ccncc1` (configuration not stated), for which the concentration for half-maximal inhibition (IC50) in the test on DLD-1 is 4110 nM; with HA22T cell line [3], “Not Active”; in the test on HONE1 cell line it was 3680 nM; in the test on HepG2 it was 4090 nM; in the test with MCF7 [2], 9260 nM; in the test with NUGC, 1780 nM. For the same molecule, the IC50 result with WI-38 is reported as “Not Active”.

Consider `N#C/N=C1\N(CCCCCOc2ccc(Cl)cc2)C(=O)CCN1c1ccncc1`, for which the concentration for half-maximal inhibition (IC50) in the test on DLD-1 was 6740 nM; in the test on HA22T cell line [3] it was “Not Active”; in the test with HONE1 cell line it was 3450 nM; in the test with HepG2 it was 2830 nM; with MCF7 [2], 5460 nM; with NUGC, 3120 nM. Further, the IC50 result in the test on WI-38 is on record as “Not Active”.

`N#C/N=C1\N(CCCCCOc2ccc(Cl)cc2)C(=O)C(c2ccccc2)N1c1ccncc1` (configuration not stated): the 50% inhibitory concentration (IC50) in the test with DLD-1 was 337 nM; in the test with HA22T cell line [1] it was 3590 nM; in the test on HONE1 cell line it was 373 nM; with HepG2, 415 nM; in the test with MCF7 [2], 1000 nM; in the test with NUGC, 3450 nM. Further, the IC50 result with WI-38 is on record as “Not Active”.

As for `CC1C(=O)N(CCCCCCCOc2ccc(Cl)cc2)/C(=N\C#N)N1c1ccncc1` (configuration not stated), the concentration for half-maximal inhibition (IC50) in the test on DLD-1 amounted to 370 nM; in the test with HA22T cell line [1] it was 688 nM; in the test with HONE1 cell line, 371 nM; in the test with HepG2, 359 nM; in the test on MCF7 [2], 460 nM; in the test on NUGC it was 1240 nM. Besides, the IC50 entry in the test with WI-38 was “Not Active”.

As to `N#C/N=C1\N(CCCCCCCOc2ccc(Cl)cc2)C(=O)CN1c1ccncc1`, the IC50 is 3340 nM in the test on DLD-1; 3500 nM in the test with HA22T cell line [1]; 3240 nM in the test with HONE1 cell line; 2740 nM with HepG2; 815 nM with MCF7 [2]; 926 nM in the test on NUGC. Also, the half-maximal inhibitory concentration (IC50) result with WI-38 is listed as “Not Active”.

As to `N#C/N=C1\N(CCCCCCOc2ccc(Cl)cc2)C(=O)CCN1c1ccncc1`, the half-inhibitory concentration (IC50) with DLD-1 came out at 565 nM; in the test with HA22T cell line [1] it was 3040 nM; with HONE1 cell line, 577 nM; in the test with HepG2, 344 nM; with MCF7 [2] it was 454 nM; with NUGC it was 288 nM. Further, the half-inhibitory concentration (IC50) result in the test on WI-38 was “Not Active”.

As to `N#C/N=C1\N(CCCCCCOc2ccc(Cl)cc2)C(=O)CN1c1ccncc1`, the IC50 in the test with DLD-1 is 3440 nM; in the test with HA22T cell line [1] it was 3860 nM; in the test with HONE1 cell line it was 2960 nM; in the test on HepG2, 392 nM; in the test on MCF7 [2], 443 nM; in the test with NUGC, 386 nM. Besides, the concentration for half-maximal inhibition (IC50) result with WI-38 is given as “Not Active”.

With `N#C/N=C1\N(CCCCCCCOc2ccc(Cl)cc2)C(=O)CCN1c1ccncc1`, the IC50 amounted to 3200 nM in the test on DLD-1; 7560 nM with HA22T cell line [1]; 3440 nM in the test with HONE1 cell line; 4000 nM with HepG2; 6840 nM in the test on MCF7 [2]; 1100 nM in the test on NUGC. Moreover, the half-maximal inhibitory concentration (IC50) result with WI-38 was “Not Active”.

Turning to `N#C/N=C1\N(CCCCCOc2ccc(Cl)cc2)C(=O)CN1c1ccncc1`, the half-maximal inhibitory concentration (IC50) in the test with DLD-1 amounted to 3800 nM; in the test on HA22T cell line [1], 8970 nM; in the test on HONE1 cell line, 3400 nM; with HepG2, 4200 nM; with MCF7 [2] it was 5360 nM; with NUGC it was 2760 nM. The IC50 result in the test with WI-38 is “Not Active”.

Turning to `CCC1C(=O)N(CCCCCCCOc2ccc(Cl)cc2)/C(=N\C#N)N1c1ccncc1` (configuration not stated), the IC50 in the test with DLD-1 worked out at 3530 nM; in the test with HA22T cell line [1], 6050 nM; with HONE1 cell line, 3230 nM; in the test on HepG2 it was 3450 nM; in the test on MCF7 [2], 4540 nM; in the test on NUGC it was 1280 nM. Also, the 50% inhibitory concentration (IC50) entry with WI-38 is on record as “Not Active”.

On to `CCC1C(=O)N(CCCCCOc2ccc(Cl)cc2)/C(=N\C#N)N1c1ccncc1` (configuration not stated), for which the IC50 with DLD-1 was 4080 nM; in the test on HA22T cell line [3], “Not Active”; with HONE1 cell line it was 4830 nM; in the test on HepG2, 4320 nM; with MCF7 [4], “Not Active”; with NUGC, 3040 nM. Besides, in the test with WI-38, the half-maximal inhibitory concentration (IC50) result was “Not Active”.

In the case of `N#CN=C(NCCCCCCOc1ccc(Cl)cc1)Nc1ccncc1` [CHS-828], the IC50 in the test with DLD-1 was 2320 nM; with HA22T cell line [1] it was 2070 nM; in the test with HONE1 cell line, 15 nM; in the test on HepG2, 1240 nM; in the test on MCF7 [2], 18 nM; in the test on NUGC, 25 nM. In the test with WI-38, the IC50 entry was “Not Active”.
